Measured values as given in ChEMBL document CHEMBL5608208, “Design, synthesis of griseofamine A derivatives and development of potent antibacterial agents against MRSA” (Eur J Med Chem, 2024).
Converted amounts (≈) assume the structure as drawn. The source made the active and inactive calls. The rule behind the calls is not given here.

What was measured:
Staphylococcus aureus [1] = test: Antibacterial activity against Staphylococcus aureus ATCC 29213 incubated for 18 hrs by serial two-fold dilution method; assay type: functional
Staphylococcus aureus [2] = test: Potency index, ratio of griseofamine A MIC to test compound MIC for antibacterial activity against Staphylococcus aureus ATCC 29213; assay type: functional
Staphylococcus aureus [3] = test: Potency index, ratio of vancomycin MIC to test compound MIC for antibacterial activity against Staphylococcus aureus ATCC 29213; assay type: functional
[4] = tested on: Staphylococcus epidermidis; test: Antibacterial activity against Staphylococcus epidermidis ATCC 12228 incubated for 18 hrs by serial two-fold dilution method; assay type: functional
Staphylococcus aureus [5] = test: Antibacterial activity against methicillin resistant Staphylococcus aureus ATCC 33592 incubated for 18 hrs by serial two-fold dilution method; assay type: functional
Staphylococcus aureus [6] = test: Antibacterial activity against methicillin resistant Staphylococcus aureus ATCC 43300 incubated for 18 hrs by serial two-fold dilution method; assay type: functional
Staphylococcus aureus [7] = test: Potency index, ratio of griseofamine A MIC to test compound MIC for antibacterial activity against methicillin resistant Staphylococcus aureus ATCC 33592; assay type: functional
Staphylococcus aureus [8] = test: Potency index, ratio of vancomycin MIC to test compound MIC for antibacterial activity against methicillin resistant Staphylococcus aureus ATCC 33592; assay type: functional
Staphylococcus aureus [9] = test: Potency index, ratio of griseofamine A MIC to test compound MIC for antibacterial activity against methicillin resistant Staphylococcus aureus ATCC 43300; assay type: functional
Staphylococcus aureus [10] = test: Potency index, ratio of vancomycin MIC to test compound MIC for antibacterial activity against methicillin resistant Staphylococcus aureus ATCC 43300; assay type: functional
[11] = tested on: Staphylococcus epidermidis; test: Bactericidal activity against Staphylococcus epidermidis ATCC 12228 incubated for 18 to 24 hrs; assay type: functional; settings: time 18-24 hrs
Staphylococcus aureus [12] = test: Bactericidal activity against Staphylococcus aureus ATCC 29213 incubated for 18 to 24 hrs; assay type: functional; settings: time 18-24 hrs
Staphylococcus aureus [13] = test: Bactericidal activity against methicillin resistant Staphylococcus aureus ATCC 33592 incubated for 18 to 24 hrs; assay type: functional; settings: time 18-24 hrs
Staphylococcus aureus [14] = test: Bactericidal activity against methicillin resistant Staphylococcus aureus ATCC 43300 incubated for 18 to 24 hrs; assay type: functional; settings: time 18-24 hrs
Staphylococcus aureus [15] = test: Bactericidal activity against methicillin resistant Staphylococcus aureus ATCC 33592 at 2.5 times MIC by time-kill kinetics assay; assay type: functional, organism-based
Staphylococcus aureus [16] = test: Bactericidal activity against methicillin resistant Staphylococcus aureus ATCC 33592 at 2.5 times MIC measured after 12 hrs by time-kill kinetics assay; assay type: functional, organism-based
[17] = tested on: Staphylococcus epidermidis; test: Drug resistance development in Staphylococcus epidermidis ATCC 12228 assessed as increase in MIC value measured after 8 passages by broth microdilution method; assay type: functional
Staphylococcus aureus [18] = test: Antibacterial activity against methicillin resistant Staphylococcus aureus ATCC 43300 infected in ICR mouse systemic infection model at 2.5 mg/kg, ip pretreated with bacteria for 30 mins followed by compound addition and measured for 7 days; assay type: functional; settings: time 7 day

Row | SMILES | MIC (Staphylococcus aureus [1]) | Ratio (Staphylococcus aureus [2]) | Ratio (Staphylococcus aureus [3]) | MIC [4] | MIC (Staphylococcus aureus [5]) | MIC (Staphylococcus aureus [6]) | Ratio (Staphylococcus aureus [7]) | Ratio (Staphylococcus aureus [8]) | Ratio (Staphylococcus aureus [9]) | Ratio (Staphylococcus aureus [10]) | MBC [11] | MBC (Staphylococcus aureus [12]) | MBC (Staphylococcus aureus [13]) | MBC (Staphylococcus aureus [14]) | Activity (Staphylococcus aureus [15]) | Activity (Staphylococcus aureus [16]) | MIC [17] | Activity (Staphylococcus aureus [18])
1 | C/C(O)=C1\C(=O)[C@@H]2Cc3c([nH]c4ccccc34)[C@@H](c3ccc(-c4ccccc4)cc3)N2C1=O | 0.125 µg/mL (≈ 0.288 µM) | 64 | 4 |  |  |  |  |  |  |  |  |  |  |  |  |  |  | 
2 | C/C(O)=C1\C(=O)[C@@H]2Cc3c([nH]c4ccccc34)[C@@H](c3ccc(-c4ccc(OC(F)(F)F)cc4)cc3)N2C1=O | 0.063 µg/mL (≈ 0.122 µM) |  |  | 0.125 µg/mL (≈ 0.241 µM) | 0.063 µg/mL (≈ 0.122 µM) | 0.063 µg/mL (≈ 0.122 µM) | 128 | 8 | 128 | 8 | 1 µg/mL (≈ 1.93 µM) | 4 µg/mL (≈ 7.71 µM) | 4 µg/mL (≈ 7.71 µM) | 4 µg/mL (≈ 7.71 µM) |  |  |  | 
3 | CN[C@H](CC(C)C)C(=O)N[C@H]1C(=O)N[C@@H](CC(N)=O)C(=O)N[C@H]2C(=O)N[C@H]3C(=O)N[C@H](C(=O)N[C@H](C(=O)O)c4cc(O)cc(O)c4-c4cc3ccc4O)[C@H](O)c3ccc(c(Cl)c3)Oc3cc2cc(c3O[C@@H]2O[C@H](CO)[C@@H](O)[C@H](O)[C@H]2O[C@H]2C[C@](C)(N)[C@H](O)[C@H](C)O2)Oc2ccc(cc2Cl)[C@H]1O [VANCOMYCIN] |  |  |  | 0.5 µg/mL (≈ 0.345 µM) |  |  |  |  |  |  | 0.25 µg/mL (≈ 0.173 µM) | 1 µg/mL (≈ 0.69 µM) | 1 µg/mL (≈ 0.69 µM) | 1 µg/mL (≈ 0.69 µM) | Active | inactive | 0.5 µg/mL | 62.5%
4 | C/C(O)=C1\C(=O)[C@@H]2Cc3c([nH]c4ccccc34)[C@@H](c3ccc(-c4ccc(C)cc4)cc3)N2C1=O | 0.125 µg/mL (≈ 0.279 µM) |  |  | 0.25 µg/mL (≈ 0.557 µM) | 0.25 µg/mL (≈ 0.557 µM) | 0.125 µg/mL (≈ 0.279 µM) |  |  |  |  |  |  |  |  |  |  |  | 
